Test results published in patent publication US12252481B2, “Anti-viral compounds” (Aligos Therapeutics, Inc., priority 2021, dated 2025).
pEC50, pIC50: −log10 of the molar value. Read-outs that look alike come from different tables or passages of the source.

Legend:
SARS-Cov-2 3CLpro = biological target: T1, SARS-Cov-2 3CLpro (Severe acute respiratory syndrome coronavirus 2, UniProt P0DTD1); assay: biochemical; settings: 3CLpro, 30 mins preincubation, SAMDI-MS; read-out: SARS-Cov-2 IC50 (class)
T1 construct: 3CLpro and HRV3C was added using a Multidrop Combi

HRV3C = biological target: T2, HRV3C (Human rhinovirus 14, UniProt P03303); assay: biochemical; design: species or system HRV; settings: HRV3C, 30 mins preincubation, SAMDI-MS
T2 construct: 3CLpro and HRV3C was added using a Multidrop Combi
T2 sequence (P03303 1538-1719): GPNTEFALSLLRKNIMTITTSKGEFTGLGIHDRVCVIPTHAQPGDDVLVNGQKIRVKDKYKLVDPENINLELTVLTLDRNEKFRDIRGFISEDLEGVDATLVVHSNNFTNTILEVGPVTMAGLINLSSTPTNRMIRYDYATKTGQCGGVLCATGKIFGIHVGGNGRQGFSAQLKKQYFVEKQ

[1] = test system: human beta-coronavirus OC43; assay: OC43 coronavirus antiviral assay in HeLa cells (cytopathic effect, cell-titer-glo); type: cell-based; settings: Betacoronavirus 1, OC43, HeLa, 144 h, 6 days at 33° C.
[2] = test system: SARS-CoV-2-GHB-03021/2020; type: cell-based; settings: read-out: VeroE6 + CP (EC50)
[3] = test system: B.1.1.7 lineage SARS-CoV-2; assay: microbe, parasite or virus in culture; type: cell-based; settings: Severe acute respiratory syndrome coronavirus 2, 96 h, read-out: A549-dual_ACE2_TMPRSS2 (EC50)
human cathepsin L = biological target: T3, human cathepsin L (Homo sapiens, UniProt P07711); assay: Cathepsin L assay (Z-FR-AMC fluorescence); type: biochemical; settings: 10 pM human cathepsin L, 30 mins preincubation, Z-FR-AMC 2 μM
T3 construct: purchased R&D Systems
T3 sequence (P07711 114-333): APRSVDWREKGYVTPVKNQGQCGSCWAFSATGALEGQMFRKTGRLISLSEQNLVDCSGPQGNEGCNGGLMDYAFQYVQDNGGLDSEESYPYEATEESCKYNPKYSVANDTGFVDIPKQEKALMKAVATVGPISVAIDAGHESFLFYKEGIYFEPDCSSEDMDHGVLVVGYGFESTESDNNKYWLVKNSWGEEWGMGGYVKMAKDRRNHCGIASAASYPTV
Outline: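 IC50 values were taken from four-parameter fits of fluorescence read at 355/460 nm every 2 minutes for 30 minutes. The reaction started when 2 μM Z-FR-AMC was added. Before that, 10 pM human cathepsin L had been preincubated with inhibitor for 30 minutes.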

[4] = […], numeric bounds given instead of class symbols

SMILES: CC(C)(C)[C@H](NC(=O)C(F)(F)F)C(=O)N1C[C@H]2[C@@H]([C@H]1C(=O)N[C@H](C#N)C[C@@H]1CCNC1=O)[C@H]1C=C[C@@H]2CC1 (mixture of isomers) [Compound 59]
- pIC50 (SARS-Cov-2 3CLpro): > 7.70
- pIC50 (HRV3C; read-out: HRV IC50 (bound)): < 5.00
- pEC50 ([1]; read-out: EC50 (class)): > 7.00
- pEC50 [2]: > 7.00
- pEC50 [3]: > 7.00
- pIC50 (human cathepsin L): ≤ 5.00

SMILES: CC(C)(C)[C@H](NC(=O)C(F)(F)F)C(=O)N1C[C@@H]2[C@@H]3CC[C@@H](C3)[C@@H]2[C@H]1C(=O)N[C@H](C#N)CC1Cn2nccc2NC1=O (relative stereo) [Compound 17a, (1S,3aR,4R,7S,7aS)-N-((S)-1-cyano-2-((R*)-5-oxo-4,5,6,7-tetrahydropyrazolo[1,5-a]pyrimidin-6-yl)ethyl)-2-((S)-3,3-dimethyl-2-(2,2,2-trifluoroacetamido)butanoyl)octahydro-1H-4,7-methanoisoindole-1-carboxamide]
- pIC50 (SARS-Cov-2 3CLpro): > 7.70
- pIC50 (HRV3C; read-out: HRV IC50 (bound)): < 5.00
- pEC50 ([1]; read-out: EC50 (class)): > 7.00
- pEC50 [2]: > 7.00
- pEC50 [3]: 6.00 to 7.00
- pIC50 (human cathepsin L): ≤ 5.00

SMILES: CC(C)(C)[C@H](NC(=O)C(F)(F)F)C(=O)N1C[C@@H]2[C@@H]3CC[C@@H](C3)[C@@H]2[C@H]1C(=O)N[C@H](C#N)C[C@H]1Cn2nccc2NC1=O (relative stereo) [Compound 17b]
- pIC50 (SARS-Cov-2 3CLpro): > 7.70
- pIC50 (HRV3C; read-out: HRV IC50 (bound)): < 5.00
- pEC50 ([1]; read-out: EC50 (class)): 6.00 to 7.00
- pEC50 [2]: 6.00 to 7.00
- pEC50 [3]: 6.00 to 7.00
- pIC50 (human cathepsin L): ≤ 5.00

SMILES: N#C[C@H](C[C@@H]1CCNC1=O)NC(=O)[C@@H]1[C@@H]2[C@H](CN1C(=O)[C@@H]1C[C@]13CCOc1ccccc13)[C@@H]1C=C[C@H]2C1 (relative stereo) [Compound 55, (1S,3aR,4S,7R,7aS)-N-((S)-1-cyano-2-((S)-2-oxopyrrolidin-3-yl)ethyl)-2-((2′R*,4S*)-spiro[chromane-4,1′-cyclopropane]-2′-carbonyl)-2,3,3a,4,7,7a-hexahydro-1H-4,7-methanoisoindole-1-carboxamide]
- pIC50 (SARS-Cov-2 3CLpro): 6.70 to 7.70
- pIC50 (HRV3C; read-out: HRV IC50 (bound)): < 5.00
- pEC50 ([1]; read-out: EC50 (class)): 5.00 to 6.00
- pEC50 [2]: 6.00 to 7.00
- pEC50 [3]: 6.00 to 7.00
- pIC50 (human cathepsin L): ≤ 5.00

SMILES: CC(C)(C)[C@H](NC(=O)C(F)(F)F)C(=O)N1C[C@H]2[C@@H]([C@H]1C(=O)NC(C#N)Cc1ccc[nH]c1=O)[C@H]1C=C[C@@H]2C1 (single isomer, unassigned) [Compound 57, (1S,3aR,4S,7R,7aS)-N-((S*)-1-cyano-2-(2-oxo-1,2-dihydropyridin-3-yl)ethyl)-2-((S)-3,3-dimethyl-2-(2,2,2-trifluoroacetamido)butanoyl)-2,3,3a,4,7,7a-hexahydro-1H-4,7-methanoisoindole-1-carboxamide]
- pIC50 (SARS-Cov-2 3CLpro): 6.70 to 7.70
- pIC50 (HRV3C; read-out: HRV IC50 (bound)): < 5.00
- pEC50 ([1]; read-out: EC50 (class)): 6.00 to 7.00
- pEC50 [2]: 6.00 to 7.00
- pEC50 [3]: 6.00 to 7.00
- pIC50 (human cathepsin L): ≤ 5.00

SMILES: CC(C)(C)[C@H](NC(=O)[C@@H]1CC1(F)F)C(=O)N1C[C@H]2[C@@H]([C@H]1C(=O)N[C@H](C#N)C[C@@H]1CCNC1=O)[C@H]1C=C[C@@H]2C1 [Compound 41]
- pIC50 (SARS-Cov-2 3CLpro): > 7.70
- pIC50 (HRV3C; read-out: HRV IC50 (bound)): < 5.00
- pEC50 ([1]; read-out: EC50 (class)): > 7.00
- pEC50 [2]: > 7.00
- pEC50 [3]: > 7.00
- pIC50 (human cathepsin L): ≤ 5.00

SMILES: CC(C)(C)C(C(=O)N1C[C@H]2[C@@H]([C@H]1C(=O)N[C@H](C#N)C[C@@H]1CCNC1=O)[C@H]1C=C[C@@H]2C1)n1cc(C(F)(F)F)nn1 (stereo partly drawn) [Compound 42, (1S,3aR,4S,7R,7aS)-N-((S)-1-cyano-2-((S)-2-oxopyrrolidin-3-yl)ethyl)-2-(3,3-dimethyl-2-(4-(trifluoromethyl)-1H-1,2,3-triazol-1-yl)butanoyl)-2,3,3a,4,7,7a-hexahydro-1H-4,7-methanoisoindole-1-carboxamide]
- pIC50 (SARS-Cov-2 3CLpro): 6.70 to 7.70
- pIC50 (HRV3C; read-out: HRV IC50 (bound)): < 5.00
- pEC50 ([1]; read-out: EC50 (class)): 6.00 to 7.00
- pEC50 [2]: 6.00 to 7.00
- pEC50 [3]: 6.00 to 7.00
- pIC50 (human cathepsin L): ≤ 5.00

SMILES: Cc1nnc(N[C@H](C(=O)N2C[C@H]3[C@@H]([C@H]2C(=O)N[C@H](C#N)C[C@@H]2CCNC2=O)[C@H]2C=C[C@@H]3C2)C(C)(C)C)o1 [Compound 43, (1S,3aR,4S,7R,7aS)-N-((S)-1-cyano-2-((S)-2-oxopyrrolidin-3-yl)ethyl)-2-((S)-3,3-dimethyl-2-((5-methyl-1,3,4-oxadiazol-2-yl)amino)butanoyl)-2,3,3a,4,7,7a-hexahydro-1H-4,7-methanoisoindole-1-carboxamide]
- pIC50 (SARS-Cov-2 3CLpro): > 7.70
- pIC50 (HRV3C; read-out: HRV IC50 (bound)): < 5.00
- pEC50 ([1]; read-out: EC50 (class)): 6.00 to 7.00
- pEC50 [2]: 6.00 to 7.00
- pEC50 [3]: 6.00 to 7.00
- pIC50 (human cathepsin L): ≤ 5.00

SMILES: N#C[C@H](C[C@@H]1CCNC1=O)NC(=O)[C@@H]1[C@@H]2[C@H](CN1C(=O)c1cc3c(Cl)cc(Cl)cc3[nH]1)[C@@H]1C=C[C@H]2C1 [Compound 44, (1S,3aR,4S,7R,7aS)-N-((S)-1-cyano-2-((S)-2-oxopyrrolidin-3-yl)ethyl)-2-(4,6-dichloro-1H-indole-2-carbonyl)-2,3,3a,4,7,7a-hexahydro-1H-4,7-methanoisoindole-1-carboxamide]
- pIC50 (SARS-Cov-2 3CLpro): 6.70 to 7.70
- pIC50 (HRV3C; read-out: HRV IC50 (bound)): < 5.00
- pEC50 ([1]; read-out: EC50 (class)): 6.00 to 7.00
- pEC50 [2]: 5.00 to 6.00
- pEC50 [3]: 5.00 to 6.00
- pIC50 (human cathepsin L): ≤ 5.00

SMILES: O=C(NC1CC1)C(=O)C(C[C@@H]1CCNC1=O)NC(=O)[C@@H]1[C@@H]2[C@H](CN1C(=O)c1nc3c(Cl)ccc(Cl)c3[nH]1)[C@@H]1C=C[C@H]2C1 (stereo partly drawn) [Compound 45, (1S,3aR,4S,7R,7aS)—N-(4-(cyclopropylamino)-3,4-dioxo-1-((S)-2-oxopyrrolidin-3-yl)butan-2-yl)-2-(4,7-dichloro-1H-benzo[d]imidazole-2-carbonyl)-2,3,3a,4,7,7a-hexahydro-1H-4,7-methanoisoindole-1-carboxamide]
- pIC50 (SARS-Cov-2 3CLpro): 6.70 to 7.70
- pIC50 (HRV3C; read-out: HRV IC50 (class)): 4.70 to 5.70
- pEC50 ([1]; read-out: EC50 (class)): 5.00 to 6.00
- pEC50 [2]: 5.00 to 6.00
- pEC50 [3]: 5.00 to 6.00
- pIC50 (human cathepsin L): ≤ 5.00

SMILES: O=C(NC1CC1)C(=O)C(C[C@@H]1CCNC1=O)NC(=O)[C@@H]1[C@@H]2[C@H](CN1C(=O)c1cc3c(Cl)cc(Cl)cc3[nH]1)[C@@H]1C=C[C@H]2C1 (stereo partly drawn) [Compound 46, (1S,3aR,4S,7R,7aS)—N-(4-(cyclopropylamino)-3,4-dioxo-1-((S)-2-oxopyrrolidin-3-yl)butan-2-yl)-2-(4,6-dichloro-1H-indole-2-carbonyl)-2,3,3a,4,7,7a-hexahydro-1H-4,7-methanoisoindole-1-carboxamide]
- pIC50 (SARS-Cov-2 3CLpro): > 7.70
- pIC50 (HRV3C; read-out: HRV IC50 (class)): 5.70 to 6.70
- pEC50 ([1]; read-out: EC50 (class)): 6.00 to 7.00
- pEC50 [2]: 6.00 to 7.00
- pEC50 [3]: 6.00 to 7.00
- pIC50 (human cathepsin L): ≤ 5.00

SMILES: CN1CC(C[C@@H](C#N)NC(=O)[C@@H]2[C@@H]3[C@H](CN2C(=O)[C@@H](NC(=O)C(F)(F)F)C(C)(C)C)[C@@H]2C=C[C@H]3C2)C(=O)N1 (stereo partly drawn) [Compound 49, (1S,3aR,4S,7R,7aS)-N-((S)-1-cyano-2-(1-methyl-3-oxopyrazolidin-4-yl)ethyl)-2-((S)-3,3-dimethyl-2-(2,2,2-trifluoroacetamido)butanoyl)-2,3,3a,4,7,7a-hexahydro-1H-4,7-methanoisoindole-1-carboxamide]
- pIC50 (SARS-Cov-2 3CLpro): > 7.70
- pIC50 (HRV3C; read-out: HRV IC50 (bound)): < 5.00
- pEC50 ([1]; read-out: EC50 (class)): 6.00 to 7.00
- pEC50 [2]: 6.00 to 7.00
- pEC50 [3]: 6.00 to 7.00
- pIC50 (human cathepsin L): ≤ 5.00

SMILES: [2H]C1([2H])C[C@@H](C[C@@H](C#N)NC(=O)[C@@H]2[C@@H]3[C@H](CN2C(=O)[C@@H](NC(=O)C(F)(F)F)C(C)(C)C)[C@@H]2C=C[C@H]3C2)C(=O)N1 [Compound 50, (1S,3aR,4S,7R,7aS)-N-((S)-1-cyano-2-((S)-2-oxopyrrolidin-3-yl-5,5-d2)ethyl)-2-((S)-3,3-dimethyl-2-(2,2,2-trifluoroacetamido)butanoyl)-2,3,3a,4,7,7a-hexahydro-1H-4,7-methanoisoindole-1-carboxamide]
- pIC50 (SARS-Cov-2 3CLpro): > 7.70
- pIC50 (HRV3C; read-out: HRV IC50 (bound)): < 5.00
- pEC50 ([1]; read-out: EC50 (class)): > 7.00
- pEC50 [2]: > 7.00
- pEC50 [3]: > 7.00
- pIC50 (human cathepsin L): ≤ 5.00

SMILES: CC(C)(C)[C@H](OC1CC1)C(=O)N1C[C@H]2[C@@H]([C@H]1C(=O)N[C@H](C#N)C[C@@H]1CCNC1=O)[C@H]1C=C[C@@H]2C1 [Compound 54]
- pIC50 (SARS-Cov-2 3CLpro): 5.70 to 6.70
- pIC50 (HRV3C; read-out: HRV IC50 (bound)): < 5.00
- pEC50 ([1]; read-out: EC50 (bound)): < 5.00
- pEC50 [2]: 5.00 to 6.00
- pEC50 [3, 4]: < 5.00
- pIC50 (human cathepsin L): ≤ 5.00

SMILES: CC(C)(C)[C@H](OCC1CC1)C(=O)N1C[C@H]2[C@@H]([C@H]1C(=O)N[C@H](C#N)C[C@@H]1CCNC1=O)[C@H]1C=C[C@@H]2C1 [Compound 56]
- pIC50 (SARS-Cov-2 3CLpro): 5.70 to 6.70
- pIC50 (HRV3C; read-out: HRV IC50 (bound)): < 5.00
- pEC50 ([1]; read-out: EC50 (bound)): < 5.00
- pEC50 [2]: 5.00 to 6.00
- pEC50 [3]: 5.00 to 6.00
- pIC50 (human cathepsin L): ≤ 5.00

SMILES: CC(C)(C)[C@@H](C(=O)N1C[C@H]2[C@@H]([C@H]1C(=O)N[C@H](C#N)C[C@@H]1CCNC1=O)[C@H]1C=C[C@@H]2C1)N1CCCC1=O [Compound 70]
- pIC50 (SARS-Cov-2 3CLpro): 4.70 to 5.70
- pIC50 (HRV3C; read-out: HRV IC50 (bound)): < 5.00
- pEC50 ([1]; read-out: EC50 (bound)): < 5.00
- pEC50 [2]: 4.30 to 5.00
- pEC50 [3, 4]: < 5.00
- pIC50 (human cathepsin L): ≤ 5.00
